# From US11547725B2, “Anti-cancer T cells and their preparation using coenzyme A” (UNIVERSITY HEALTH NETWORK, priority 2017, dated 2023)
# Key:
# CD8+ T cells [1] = experiment: Tc subset polarization of CD8+ T cells, intracellular cytokine staining by flow cytometry; assay type: cell-based, mouse; conditions: for Tc22 polarization: CD8+ T cells activated three days in Tc22 conditions, compound vs vehicle (oligomycin 100 nm, etomoxir 40 μm, pantothenate 8 mM, CoA 2.5-3.5 mM)
# CD4+ T cells [2] = experiment: OCR, OCR:ECAR ratio and ATP production in CD4+ T cells; assay type: cell-based, mouse; conditions: CD4+ T cells activated with vehicle or CoA
# Description: (§1) Seahorse was performed as previously described (11). ATP quantification was performed on day 3 polarized T cells using a commercial kit (Sigma) according to the recommended protocol. For SITA, CD8+ T cells activated for three days in the presence of vehicle or CoA were harvested, washed and incubated for 2.5 hours with U-13C6-glucose (Cambridge Isotopes). Cells were then washed and pellet was frozen in methanol. The cells were thawed on ice and lysed by sonication at 4° C. using a Diagenode Bioruptor (30s. on, 30s off, 5 mins). The resulting mixtures were spun down (15 mins 13000 rpm 4° C.) to remove the cellular debris, the resulting supernatants were transferred to clean microfuge tubes and the solvent was removed using a speed-vac at room temperature. The resulting pellets were stored at −70° C. until derivitization. The pellets were solubilized in 30 μL of pyridine containing methoxyamine(10 mg/mL; Sigma) and each sample was spiked with 1 μL of myristic acid-D27 (750 ng/mL in pyridine; Cambridge Isotopes). The samples were vortexed, sonicated, transferred to autoinjection vials and incubated at room temperature for 30 mins. Subsequent to this, 70 uL of N-tert-Butyldimethylsilyl-N-methyltrifluoroacetamide (MTBSTFA; Sigma) was added and the samples were incubated at 70° C. for 30 mins. GC/MS analysis was performed using an Agilent 5975C GC/MS equipped with a DB-5MS+DG capillary column. […]
# CD8+ T cells [3] = experiment: Seahorse OCR / ECAR; assay type: cell-based, mouse
# Description: Seahorse was performed as previously described (11). ATP quantification was performed on day 3 polarized T cells using a commercial kit (Sigma) according to the recommended protocol. For SITA, CD8+ T cells activated for three days in the presence of vehicle or CoA were harvested, washed and incubated for 2.5 hours with U-13C6-glucose (Cambridge Isotopes). Cells were then washed and pellet was frozen in methanol. The cells were thawed on ice and lysed by sonication at 4° C. using a Diagenode Bioruptor (30s. on, 30s off, 5 mins). The resulting mixtures were spun down (15 mins 13000 rpm 4° C.) to remove the cellular debris, the resulting supernatants were transferred to clean microfuge tubes and the solvent was removed using a speed-vac at room temperature. The resulting pellets were stored at −70° C. until derivitization. The pellets were solubilized in 30 μL of pyridine containing methoxyamine(10 mg/mL; Sigma) and each sample was spiked with 1 μL of myristic acid-D27 (750 ng/mL in pyridine; Cambridge Isotopes). The samples were vortexed, sonicated, transferred to autoinjection vials and incubated at room temperature for 30 mins. Subsequent to this, 70 uL of N-tert-Butyldimethylsilyl-N-methyltrifluoroacetamide (MTBSTFA; Sigma) was added and the samples were incubated at 70° C. for 30 mins. GC/MS analysis was performed using an Agilent 5975C GC/MS equipped with a DB-5MS+DG capillary column. 1 uL of sample was injected onto the GC column in splitless mode with an inlet temperature of 280° C. and the data was collected by electron impact set at 70 eV. Helium was used as the carrier gas with a flow rate of 1.55 mL/min. The quadrupole was set at 150° C. and the GC/MS interface at 285° C. The oven program for all metabolite analyses started at 60° C. held for 1 min, then increasing at a rate of 10° C./min until 320° C. Bake-out was at 320° C. for 10 mins and the sample data were acquired in scan mode (1-600 m/z).
# To further characterize these observed differences in each Tc subset, we analyzed their respective utilization of glycolysis versus OXPHOS using the Seahorse Bioanalyzer. This method allows the concurrent measurement of the oxygen consumption rate (OCR—indicative of OXPHOS) and the extracellular acidification rate (ECAR—indicative of glycolysis) in real-time. […] Consistent with the increased ATP yield of oxidative metabolism compared to glycolysis, Tc22s had the highest amounts of intracellular ATP (FIG. 1F). We also observed metabolites involved in the TCA cycle and OXPHOS, particularly succinate, to be increased in Tc22s (FIG. 6).
# CD8+ T cells [4] = experiment: RNA sequencing of CD8+ T cells activated with CoA or vehicle; assay type: cell-based, mouse; conditions: RNA seq
# Description: RNA was extracted from CD8+ T cells activated for three days in the presence of CoA or Vehicle using Qiagen RNEasy kit. Libraries were prepared using TruSeq Stranded Total RNA kit. Two hundred nanograms from RNA samples were ribosomal RNA depleted using Ribo-zero Gold rRNA beads, following purification the RNA was fragmented. The cleaved RNA fragments were copied into first strand cDNA using reverse transcriptase and random primers. This is followed by second strand cDNA synthesis using RNase H and DNA Polymerase I. A single “A” based were added and adapter ligated followed by purification and enrichment with PCR to create cDNA libraries. Final cDNA libraries were size validated using Agilent Bioanalyzer and concentration validated by qPCR. All libraries were normalized to 10 nM and pooled together. 10 pM of pooled libraries were loaded onto Illumina cBot for cluster generation. Clustered flow cell was then sequenced Pair-end 100 cycles V3 using Illumina HighSeq 2000 to achieve ˜30 million reads per sample.
# The Tophat (2.0.8b) software suite with Bowtie (2.0.5) was used to align reads to the Mus musculus mm10 mouse genome (igenome). […] The cufflinks (2.2.1) software suite was used to quantify alignments. Cuffquant was used to quantify individual sample alignments and Cuffnorm was used to normalize quantified data for each group of biological replicates. […]
# CD8+ T cells [5] = experiment: Stable isotope tracer analysis (SITA) with 13C-glucose, GC/MS; assay type: cell-based, mouse; conditions: three days CoA or vehicle
# Description: as §1, with “mins.” for “mins. GC/MS analysis was performed using an Agilent 5975C GC/MS equipped with a DB-5MS+DG capillary column.”
# The data was analyzed using Agilent MSD-Chemstation interfaced to the NIST11 library. […]
# CD4+ T cells [6] = experiment: Th22 polarization of SMARTA CD4+ T cells, cytokine expression; assay type: cell-based, mouse; conditions: CoA vs vehicle, non-polarizing or Th22 conditions
# [7] = system: dextran sulfate sodium (DSS) colitis; experiment: DSS colitis model; assay type: in vivo, mouse; conditions: 2.5% DSS in water 5 days; oral CoA 0.5 mg/mL in drinking water vs vehicle
# Description: For DSS-colitis experiments, 8-12 week old female C57BL/6 mice were randomized into different cohorts and colitis was induced using 2.5% DSS (MP Bio) added to the drinking water of mice for 5 consecutive days. CoA (0.5 mg/mL) or vehicle control was added to the drinking water on day 0. On day 5, mice were switched to fresh water without any DSS added, supplemented with either CoA (0.5 mg/mL) or vehicle control.
# HIF-1α = experiment: Western blotting for HIF-1a; assay type: cell-based, mouse; conditions: CD8+ T cells activated with vehicle or CoA
# Description: (§2) Antibodies used for flow cytometry were purchased from eBioscience, Biolegend and BD Pharmingen. Antibody clones used were: CD4 (RM-45), CD8 (53-6.7), IL-22 (IL22JOP and Poly5164), IL-17 (eBio17B7), IFN-γ (XMG1.2) and TNF-α (MP6-XT22). Antibodies used for western blotting were HIF-1a (Caymen Chem-10006421) and β-actin (Sigma—A2066). For intracellular cytokine staining, cells were re-stimulated for 5-6 hours with Cell-Stimulation Cocktail (eBioscience) in the presence of Brefeldin A (eBioscience), followed by staining using Cytofix/Cytoperm (BD Pharmingen). Flow cytometry data was acquired on a FACSCanto II (BD) and analyzed using FlowJo software (Tree Star). Cytokines were quantified in the supernatant using LEGENDPLEX cytometric bead array (Biolegend) or by ELISA (eBioscience)
# CD8+ T cells [8] = experiment: ATP quantification (commercial kit); assay type: cell-based, mouse; conditions: CD8+ T cells activated with CoA vs vehicle
# Description: as §1
# CD8+ T cells [9] = experiment: Cytokines quantified in supernatant (cytometric bead array or ELISA); assay type: cell-based, mouse; conditions: three day culture, CD8+ T cells activated with vehicle or CoA
# Description: as §2
# Oligomycin, Etomoxir, Diethyl succinate and Calcium-D Pantothenate were purchased from Sigma, and Coenzyme A Trilithium Salt (CoA) and HIF-inhibitor (CAS 934593-90-5) were purchased from EMD Millipore. Oligomycin (100 nm) was added to CD8+ T cells 24 hours after the start of activation, while Etomoxir (40 μm), Pantothenate (8 mM), Diethyl Succinate (14 mM) and HIF-Inhibitor (40 μM) were added at the start of activation. CoA was added at the start of activation unless otherwise indicated at a concentration of 2.5-3.5 mM depending on the lot.
# human CD8+ cells = experiment: Human T cell Tc22 polarization, intracellular cytokines by flow cytometry; assay type: cell-based; conditions: human naive T cells, Tc22 conditions, pantothenate 8 mM on day 0, five days
# Description: Peripheral blood mononuclear cells were obtained from healthy donors following institutional review board approval. Written informed consent was obtained from all donors who provided the samples. PBMCs were magnetically sorted for naïve T cells (Miltenyi Biotec) and seeded into a 96-well plate previously coated with 5 μg/mL anti-CD3 (eBioscience, clone OKT3). To induce Tc22 polarization, the following antibodies and cytokines were added to culture: 1 μg/mL anti-CD28 (eBioscience, clone CD28.2), 5 μg/mL anti-IFNγ (BioLegend, clone B27), 5 μg/mL anti-IL-4 (BioLegend, clone 8D4-8), 5 μg/mL anti-TGFβ (eBioscience, clone 1D11.16.8), 20 ng/mL IL-6, 10 ng/mL IL-21, 10 ng/mL IL-23, 40 ng/mL TNF-α (All from BioLegend) and 2 ng/mL FICZ. Pantothenate (8 mM) or vehicle control was also added on day 0. Five days later, cells were stimulated with PMA/ionomycin+Brefeldin for 5-6 hours. Cells were then stained and analyzed for intracellular cytokines by flow cytometry.
# [10] = CD8+ T cells activated with CoA vs vehicle
# [11] = re-stimulated 48 hours with anti-CD3 with vehicle or CoA
smiles,measurement,setting,value
"CC[C@H]1/C=C/C=C/C[C@@H](C)[C@H](O)[C@@](C)(O)C(=O)[C@@H](C)[C@H](O)[C@@H](C)C(=O)[C@@H](C)[C@H](O)[C@@H](C)/C=C/C(=O)O[C@@H]2[C@H](C)[C@H](CC1)O[C@]1(CC[C@H](C)[C@H](C[C@@H](C)O)O1)[C@H]2C [oligomycin, Oligomycin]",Tc22 polarization,CD8+ T cells [1],decrease in Tc22 polarization
same,Tc1 polarization,"CD8+ T cells [1]; Tc1 conditions, oligomycin 100 nm added 24 hours after start of activation",did enhance Tc1 polarization
same,Tc17 polarization,"CD8+ T cells [1]; Tc17 conditions, oligomycin 100 nm added 24 hours after start of activation",did not affect Tc17 polarization
"CCOC(=O)CCC(=O)OCC [succinate, Diethyl succinate]",IL-22 production,CD8+ T cells [1]; CD8+ T cells activated three days with exogenous succinate (diethyl succinate 14 mM),enhanced IL-22 production
"CC(C)(COP(=O)(O)OP(=O)(O)OC[C@H]1O[C@@H](n2cnc3c(N)ncnc32)[C@H](O)[C@@H]1OP(=O)(O)O)[C@@H](O)C(=O)NCCC(=O)NCCS.[Li].[Li].[Li] [CoA, Coenzyme A Trilithium Salt]",ATP production in CD4+ T cells,CD4+ T cells [2],enhanced ATP production
same,"Metabolic shift (OCR, OCR:ECAR ratio) in CD4+ T cells",CD4+ T cells [2],metabolic shift towards OXPHOS
same,Basal ECAR,CD8+ T cells [3]; [10],lower basal ECAR
same,Basal OCR,CD8+ T cells [3]; [10],higher basal OCR
same,OCR:ECAR ratio,CD8+ T cells [3]; [10],high OCR:ECAR ratio
same,"Oxidative phenotype (OCR, ECAR, OCR:ECAR, ATP) in previously activated CD8+ T cells",CD8+ T cells [3]; [11],promote an oxidative phenotype
same,Tc22 polarization,CD8+ T cells [1],greatly enhanced polarization
same,Cytokine expression in non-polarizing conditions,"CD8+ T cells [1]; CD8+ T cells activated with CoA alone, absence of polarizing cytokines",skewed primarily towards an IL-22^+ IL-17^− IFNγ^− population
same,Tc22 induction in presence of IL-6 neutralizing antibody,"CD8+ T cells [1]; CoA with anti IL-6 (10 ug/mL), three days",retained the ability to induce Tc22s
same,Tc22 polarization in APC-free system,"CD8+ T cells [1]; platebound anti-CD3 and soluble anti CD28, three days, CoA added 24 hours after start, non-polarizing or Tc22 conditions",induced and enhanced Tc22 polarization
same,IL-22 production in previously activated CD8+ T cells,CD8+ T cells [1]; [11],able to induce IL-22 production
same,Expression of genes up-regulated by Tc22 polarizing cytokines (Tc22 signature),"CD8+ T cells [4]; CoA alone vs vehicle, three days",strongly up-regulated
same,Gene expression altered by treatment (GO term analysis),CD8+ T cells [4]; CoA vs vehicle,primarily altered the expression of immune system genes and not metabolic genes
same,Total intracellular pools of TCA intermediates,CD8+ T cells [5],increased total intracellular pools of many of the TCA intermediates
same,Incorporation of 13C label into TCA metabolites,CD8+ T cells [5]; then 2.5 hours 13C glucose,enhanced incorporation of the ^13C label into TCA metabolites
same,Th22 polarization,CD4+ T cells [6],induced and enhanced Th22 polarization
same,Disease severity (% weight loss),[7],decrease in disease severity
same,Levels of HIF-1α,HIF-1α,substantially increased levels of HIF-1α
same,Intracellular levels of ATP,CD8+ T cells [8],increased intracellular levels of ATP
same,Cytokine profile in supernatants,CD8+ T cells [9],primarily up-regulate IL-22
"CC(C)(CO)[C@@H](O)C(=O)NCCC(=O)O [pantothenate, Calcium-D Pantothenate]",Tc22 polarization,CD8+ T cells [1],enhanced polarization
same,"Tc22 polarization, human CD8+ cells",human CD8+ cells,enhanced polarization
"CCOC(=O)[C@@]1(CCCCCCOc2ccc(Cl)cc2)CO1 [etomoxir, Etomoxir]",Tc22 polarization,CD8+ T cells [1],had no effect on Tc22 polarization
